In ChEMBL document CHEMBL4725357, “Elucidating the Structural Requirement of Uridylpeptide Antibiotics for Antibacterial Activity” (J Med Chem, 2020):
≈ marks a conversion by molar mass, not a printed value.

Experiments:
[1] = Inhibition of Staphylococcus aureus MraY using UDPMurNAc-dansylpentapeptide as substrate incubated for 3 hrs by fluorescence method
[2] = tested on: Pseudomonas aeruginosa; experiment: Antibacterial activity against Pseudomonas aeruginosa PAO1 incubated for 18 hrs by CLSI based broth microdilution method; format: functional

| IC50 [1] [nM] | MIC [2] [µg/mL] | Structure (SMILES) |
| --- | --- | --- |
| > 1000 | – | CCCCCCCCCCCCCCCC(=O)N[C@@H](C)C(=O)N[C@H](C(=O)N/C=C1\O[C@@H](n2ccc(=O)[nH]c2=O)[C@H](O)[C@@H]1O)[C@H](C)N(C)C(=O)[C@@H](N)Cc1cccc(O)c1 |
| 2.1 | > 128 | C[C@@H]([C@H](NC(=O)[C@H](CC(N)=O)NC(=O)N[C@@H](Cc1c[nH]c2ccccc12)C(=O)O)C(=O)N/C=C1\O[C@@H](n2ccc(=O)[nH]c2=O)[C@H](O)[C@@H]1O)N(C)C(=O)[C@@H](N)Cc1cccc(O)c1 |
| 4.2 | > 128 | C[C@@H]([C@H](NC(=O)CNC(=O)N[C@@H](Cc1c[nH]c2ccccc12)C(=O)O)C(=O)N/C=C1\O[C@@H](n2ccc(=O)[nH]c2=O)[C@H](O)[C@@H]1O)N(C)C(=O)[C@@H](N)Cc1cccc(O)c1 |
| 0.44 | 32 (≈ 34.2 µM) | C[C@@H]([C@H](NC(=O)[C@H](Cc1c[nH]c2ccccc12)NC(=O)N[C@@H](Cc1c[nH]c2ccccc12)C(=O)O)C(=O)N/C=C1\O[C@@H](n2ccc(=O)[nH]c2=O)[C@H](O)[C@@H]1O)N(C)C(=O)[C@@H](N)Cc1cccc(O)c1 |
| > 1000 | – | CC(=O)N[C@H](C(=O)N/C=C1\O[C@@H](n2ccc(=O)[nH]c2=O)[C@H](O)[C@@H]1O)[C@H](C)N(C)C(=O)[C@@H](N)Cc1cccc(O)c1 |

More lines, now with the values behind:

| Structure (SMILES) | IC50 [1] [nM] | MIC [2] [µg/mL] |
| --- | --- | --- |
| CSCC[C@H](NC(=O)N[C@@H](Cc1c[nH]c2ccccc12)C(=O)O)C(=O)N[C@H](C(=O)N/C=C1\O[C@@H](n2ccc(=O)[nH]c2=O)[C@H](O)[C@@H]1O)[C@H](C)N(C)C(=O)[C@@H](N)Cc1cccc(O)c1 | 1 | 32 (≈ 36.4 µM) |
| C[C@@H]([C@H](NC(=O)[C@H](CO)NC(=O)N[C@@H](Cc1c[nH]c2ccccc12)C(=O)O)C(=O)N/C=C1\O[C@@H](n2ccc(=O)[nH]c2=O)[C@H](O)[C@@H]1O)N(C)C(=O)[C@@H](N)Cc1cccc(O)c1 | 1.8 | > 128 |
| CC(C)C[C@H](NC(=O)N[C@@H](Cc1c[nH]c2ccccc12)C(=O)O)C(=O)N[C@H](C(=O)N/C=C1\O[C@@H](n2ccc(=O)[nH]c2=O)[C@H](O)[C@@H]1O)[C@H](C)N(C)C(=O)[C@@H](N)Cc1cccc(O)c1 | 4 | 32 (≈ 37.1 µM) |
| CC(=O)N[C@@H](C)C(=O)N[C@H](C(=O)N/C=C1\O[C@@H](n2ccc(=O)[nH]c2=O)[C@H](O)[C@@H]1O)[C@H](C)N(C)C(=O)[C@@H](N)Cc1cccc(O)c1 | > 1000 | – |
| CC[C@H](C)[C@H](NC(=O)N[C@@H](Cc1c[nH]c2ccccc12)C(=O)O)C(=O)N[C@H](C(=O)N/C=C1\O[C@@H](n2ccc(=O)[nH]c2=O)[C@H](O)[C@@H]1O)[C@H](C)N(C)C(=O)[C@@H](N)Cc1cccc(O)c1 | 1.4 | 16 (≈ 18.6 µM) |
| CC(C)[C@H](NC(=O)N[C@@H](Cc1c[nH]c2ccccc12)C(=O)O)C(=O)N[C@H](C(=O)N/C=C1\O[C@@H](n2ccc(=O)[nH]c2=O)[C@H](O)[C@@H]1O)[C@H](C)N(C)C(=O)[C@@H](N)Cc1cccc(O)c1 | 1.5 | 16 (≈ 18.9 µM) |
| C[C@@H]([C@H](NC(=O)[C@H](CCC(=O)O)NC(=O)N[C@@H](Cc1c[nH]c2ccccc12)C(=O)O)C(=O)N/C=C1\O[C@@H](n2ccc(=O)[nH]c2=O)[C@H](O)[C@@H]1O)N(C)C(=O)[C@@H](N)Cc1cccc(O)c1 | 3.3 | 128 (≈ 146 µM) |
| CC(C)C[C@H](NC(=O)[C@@H](NC(=O)N[C@H](C(=O)O)C(C)C)[C@@H]1CCNC(=N)N1)C(=O)NCCCN[C@H](C(=O)O)[C@H](O[C@@H]1O[C@H](CN)[C@@H](O)[C@H]1O)[C@H]1O[C@@H](n2ccc(=O)[nH]c2=O)[C@H](O)[C@@H]1O [MURAMYCIN D2] | 2.8 | – |
| CCCCCCCCCCCCCCC[C@H](N)C(=O)NCCCN[C@H](C(=O)O)[C@H](O[C@@H]1O[C@H](CN)[C@@H](O)[C@H]1O)[C@H]1O[C@@H](n2ccc(=O)[nH]c2=O)[C@H](O)[C@@H]1O | 2.7 | – |
| CCCCCCCCCCCCCCC[C@H](NC(=O)[C@@H](NC(=O)N[C@H](C(=O)O)C(C)C)[C@@H]1CCNC(=N)N1)C(=O)NCCCN[C@H](C(=O)O)[C@H](O[C@@H]1O[C@H](CN)[C@@H](O)[C@H]1O)[C@H]1O[C@@H](n2ccc(=O)[nH]c2=O)[C@H](O)[C@@H]1O | 1.1 | – |
